Values after ≈ are worked out from the molar mass of the structure shown. Active and inactive are the calls of the source. The rule behind the calls is not given here.
Legend:
Human alphaherpesvirus 2 [1] = test: Antiviral activity against Herpes simplex virus 2 assessed as inhibition of virus-induced cytopathic effect after 72 hrs by two-fold dilution method; type: functional; settings: Human alphaherpesvirus 2, 72 h
Human alphaherpesvirus 2 [2] = test: Antiviral activity against Herpes simplex virus 2 assessed as inhibition of virus-induced cytopathic effect at 50 ug/ml after 72 hrs by two-fold dilution method; type: functional, organism-based
Equine rhinovirus = test: Antiviral activity against Equine rhinovirus assessed as inhibition of virus-induced cytopathic effect after 48 hrs by two-fold dilution method
Human alphaherpesvirus 1 = test: Antiviral activity against Herpes simplex virus 1 Sheely assessed as inhibition of virus-induced cytopathic effect at 37 degC after 72 hrs by two-fold dilution method; type: functional; settings: Human alphaherpesvirus 1, Sheely
Human alphaherpesvirus 2 [3] = test: Antiviral activity against Herpes simplex virus 2 Curtis assessed as inhibition of virus-induced cytopathic effect at 37 degC after 72 hrs by two-fold dilution method; type: functional; settings: Human alphaherpesvirus 2, Curtis

| SMILES | MIC (Human alphaherpesvirus 2 [1]) [µg/mL] | inhibition (Human alphaherpesvirus 2 [2]) | MIC (Equine rhinovirus) [µg/mL] | MIC (Human alphaherpesvirus 1) [µg/mL] | MIC (Human alphaherpesvirus 2 [3]) [µg/mL] |
| --- | --- | --- | --- | --- | --- |
| CCC(=O)C(CCCCCCOc1ccc(Cl)cc1Cl)C(=O)CC | 3 (≈ 8.04 µM) | – | – | – | – |
| CCC(=O)C(CCCCCCOc1ccc(Cl)cc1)C(=O)CC | – | inactive | 3 (≈ 8.85 µM) | – | – |
| CCC(=O)C(CCCCCCOc1ccc(OC(=O)c2ccc(OC)cc2)cc1)C(=O)CC | – | inactive | 6 (≈ 13.2 µM) | – | – |
| CCC(=O)C(CCCCCCCCOc1ccc(OC)cc1Cl)C(=O)CC | 3 (≈ 7.56 µM) | – | 3 (≈ 7.56 µM) | – | – |
| CCC(=O)C(CCCCCCOc1ccccc1I)C(=O)CC | – | inactive | 12 (≈ 27.9 µM) | – | – |
| CCC(=O)C(CCCCCCOc1ccc(F)cc1Cl)C(=O)CC | 6 (≈ 16.8 µM) | – | 3 (≈ 8.41 µM) | – | – |
| CCC(=O)C(CCCCCCOc1ccc(CC)cc1)C(=O)CC | 12 (≈ 36.1 µM) | – | 6 (≈ 18 µM) | – | – |
| CCC(=O)C(CCCCCCOc1ccc(C(=O)O)cc1)C(=O)CC | – | inactive | 6 (≈ 17.2 µM) | – | – |
| CCC(=O)C(CCCCCCOc1cccc(N(C)C)c1)C(=O)CC | – | inactive | 6 (≈ 17.3 µM) | – | – |
| CCC(=O)C(CCCCCCOc1cc(Cl)c(OC)cc1Cl)C(=O)CC | 6 (≈ 14.9 µM) | – | 3 (≈ 7.44 µM) | – | – |
| Nc1ccn([C@@H]2O[C@H](CO)[C@@H](O)[C@@H]2O)c(=O)n1 [CYTARABINE] | – | – | – | < 3 | < 3 |
| CCC(=O)C(CCCCCCOc1ccc(OC(=O)CCCN2CCOCC2)cc1)C(=O)CC | 12 (≈ 25.2 µM) | – | 12 (≈ 25.2 µM) | – | – |
| CCC(=O)C(CCCCCCOc1ccc(I)cc1)C(=O)CC | 6 (≈ 13.9 µM) | – | 3 (≈ 6.97 µM) | – | – |
| CCC(=O)C(CCCCCCOc1ccc(Br)cc1)C(=O)CC | 6 (≈ 15.7 µM) | – | 3 (≈ 7.83 µM) | – | – |
| CCC(=O)C(CCCCCCOc1c(Cl)c(Cl)c(Cl)c(Cl)c1Cl)C(=O)CC | – | inactive | 12 (≈ 25.2 µM) | – | – |
| CCC(=O)C(CCCCCCOc1ccc(SC)cc1)C(=O)CC | – | inactive | 3 (≈ 8.56 µM) | – | – |

| SMILES | MIC (Human alphaherpesvirus 2 [1]) [µg/mL] | inhibition (Human alphaherpesvirus 2 [2]) | MIC (Equine rhinovirus) [µg/mL] | MIC (Human alphaherpesvirus 1) [µg/mL] | MIC (Human alphaherpesvirus 2 [3]) [µg/mL] |
| --- | --- | --- | --- | --- | --- |
| CCC(=O)C(CCCCCCOc1ccc(C#N)cc1)C(=O)CC | – | inactive | – | – | – |
| CCC(=O)C(CCCCCCOc1ccccc1[N+](=O)[O-])C(=O)CC | 6 (≈ 17.2 µM) | – | 6 (≈ 17.2 µM) | – | – |
| CCC(=O)C(CCCCCCOc1ccc(OC)cc1Br)C(=O)CC | 6 (≈ 14.5 µM) | – | 3 (≈ 7.26 µM) | – | – |
| COc1ccc(OCCCCCCC(C(=O)C(C)(C)C)C(=O)C(C)(C)C)c(Cl)c1 | 6 (≈ 14.1 µM) | – | – | – | – |
| CCC(=O)C(CCCCCCOc1ccc(C(C)=O)cc1OC)C(=O)CC | 12 (≈ 31.9 µM) | – | – | – | – |
| CCC(=O)C(CCCCCCOc1ccccc1Cl)C(=O)CC | 6 (≈ 17.7 µM) | – | 3 (≈ 8.85 µM) | – | – |
| CCC(=O)C(CCCCCCCOc1ccc(OC)cc1Cl)C(=O)CC | 6 (≈ 15.7 µM) | – | 3 (≈ 7.83 µM) | – | – |
| CCC(=O)C(CCCCCCOc1ccc(OC(=O)c2ccccc2)cc1)C(=O)CC | – | inactive | – | – | – |
| CCC(=O)C(CCCCCCOc1ccc2c(c1)OCO2)C(=O)CC | – | inactive | 3 (≈ 8.61 µM) | – | – |
| O=c1[nH]c(=O)n([C@H]2C[C@H](O)[C@@H](CO)O2)cc1I [IDOXURIDINE] | – | – | – | 6 (≈ 16.9 µM) | 6 (≈ 16.9 µM) |
| COc1ccc(OCCCCCCC(C(C)=O)C(C)=O)c(Cl)c1 | 12 (≈ 35.2 µM) | – | – | – | – |
| CCC(=O)C(CCCCCCOc1ccc(OC)cc1)C(=O)CC | 25 (≈ 74.7 µM) | – | 6 (≈ 17.9 µM) | – | – |
| CCC(=O)C(CCCCCCCCCCOc1ccc(OC)cc1Cl)C(=O)CC | 6 (≈ 14.1 µM) | – | 12 (≈ 28.2 µM) | – | – |
| CCC(=O)C(CCCCCCOc1ccc([N+](=O)[O-])cc1Cl)C(=O)CC | 3 (≈ 7.82 µM) | – | 3 (≈ 7.82 µM) | – | – |
| CCC(=O)C(CCCCCOc1ccc2c(c1)OCO2)C(=O)CC | – | inactive | – | – | – |
| CCOC(=O)C(CCCCCCOc1ccc(OC)cc1Cl)C(C)=O (configuration not stated) | – | inactive | 6 (≈ 16.2 µM) | – | – |
